In US20090047655A1, “Method Of Screening Candidate Drug” (priority 2004, published 2009):
Where two headings read alike, the source gives them in different places.

Experiments:
CYP2D6 = experiment: in vivo; details: uPA(+/+)/SCID, po
Procedure: As for the chimeric mice, chimeric mice produced in PhoenixBio Co., Ltd. were used. To be more specific, 3 mice in which human hepatocytes were engrafted and proliferated in the mouse liver were produced by transplanting human hepatocytes (BD51, purchased from BD Gentist Inc.) into the spleen of uPA(+/+)/SCID mice, which are mice having hepatic impairment and immunodeficiency.
Paroxetine was dissolved in Milli-Q water (using a bath-type ultrasonic device) and prepared to give a final concentration of 6 mg/ml. The prepared drug was intraperitoneally administered to the mice at a dose of 5 μl/g b.w. (30 mg/kg b.w./day).
To the high-replacement chimeric mice, paroxetine was intraperitoneally administered for 3 days. Then, in the same manner as in Example 1, 5 compounds were simultaneously administered orally by gavage, the blood was collected over time, and the serum was stored.
The determination and analysis of drugs in the serum were carried out in the same manner as in Example 1.
The determined values of the drug concentration in the serum were calculated from the peak area ratio obtained by the LC-MS/MS measurement of the samples for addition calibration curve. […] From the graphs, Cmax, t1/2 and AUC were analyzed.

[1] = mouse, in vivo; for AUC: uPA(+/+)/SCID
Description: (§1) As for the chimeric mice, chimeric mice produced by Hiroshima Prefectural Institute of Industrial Science and Technology or PhoenixBio Co., Ltd. were used. To be more specific, mice in which human hepatocytes were engrafted and proliferated in the mouse liver were produced by transplanting human hepatocytes (IVT079, purchased from In Vitro Technology Inc., or BD51, purchased from BD Gentest Inc.) into the spleen of uPA(+/+)/SCID mice, which are mice having hepatic impairment and immunodeficiency. Mice in which 70% or more of the mouse liver had been replaced with human hepatocytes (high-replacement chimeric mice) and low-replacement chimeric mice in which although human hepatocytes had been transplanted, the replacement ratio was almost 0%, or untransplanted mice (mice with no replacement) were used (3 mice in each group). Further, as a control, 3 uPA(−/−)/SCID mice were used.
(§2) The concentration for administration of tolbutamide which is a standard drug for CYP2C9 was […]., and 4.175 mg of tolbutamide was weighed out and suspended in 1 ml of a CMC liquid in an agate mortar, and a 4.175 mg/ml suspension which is 5 times as high as the concentration for administration was prepared.
(§3) To the high-replacement chimeric mice, low-replacement chimeric mice (or mice with no replacement) and uPA(−/−)/SCID mice (3 mice in each group), 5 compounds were simultaneously administered orally by gavage or intravenously. The blood was collected from the tail vein of each mouse in an amount of 15 μl each at 0.25 (only intravenous administration), 0.5, 1, 2, 4 (only oral administration) and 8 hours after administration. Then, the blood was centrifuged at 3,500 rpm for 5 minutes, and the serum (supernatant) was collected and stored in a freezer at −30° C.
(§4) The serum samples were transported to Sumika Chemical Analysis Service, Ltd. while keeping it in dry ice, and subjected to measurement by LC-MS/MS according to the following procedure.
(§5) With regard to a liquid chromatograph, SIL-HTC and LC-10A series (Shimadzu Corporation) were used, and as a column, Synergi 4μ Polar-RP 80A, 150 mm (length)×2.00 mm (inner diameter), 4 μm (Phenomenex Inc.) was used at 30° C. As a mobile phase, methanol/a 10 mmol/l ammonium acetate solution/acetic acid (700/300/2, v/v/v) was used, and a flow rate was set at 0.2 ml/min. An injection volume was set at 2 μl, a measurement time was set at 10 min, and the temperature of an autosampler was set at 4° C. As a mass spectrometer, Tandem Mass Spectrometer API 4000 (Applied Biosystems/MDS SCIEX Inc.) was used. As API interface, Turbo V (ESI probe) was used, and as Ionization mode, Positive ion detection mode was used.
To Eppendorf tubes in which 5 μl of samples to be measured (serum) were contained, 100 μl of methanol was added, and 10 μl of 1 μg/ml of I.S. standard solution was added thereto, and then, the mixtures were thoroughly mixed by an ultrasonic treatment and a vortex mixer. […]
(§6) The determined values of the drug concentration in the serum were calculated from the peak area ratio obtained by the LC-MS/MS measurement of the samples for addition calibration curve. […] From the graphs, the peak serum concentration (Cmax), half-life (t1/2), area under the curve (AUC), bioavailability and clearance were analyzed, and pharmacokinetics in human was predicted.

in vivo = details: for t 1/2 Distribution phase / half-life / AUC / bioavailability / Cmax: mouse, in vivo
Description: as §1, §2, §3, §4, §5
To Eppendorf tubes in which 5 μl of samples to be measured (serum) were contained, 100 μl of methanol was added, and 10 μl of 1 μg/ml of I.S. standard solution was added thereto, and then, the mixtures were thoroughly mixed by an ultrasonic treatment and a vortex mixer. The resulting mixtures were centrifuged (15,000 rpm, 5 min, room temperature), and the resulting supernatants were subjected to centrifugal filtration (10,000 rpm, 2 min, room temperature) with a filter, and the resulting filtrates were used as injection samples for LC-MS/MS.
as §6

[2] = uPA(+/+)/SCID, po, t 1/2 Distribution phase
[3] = uPA(−/−)/SCID, iv, t 1/2 Distribution phase
[4] = uPA(−/−)/SCID, iv, t 1/2 Elimination phase

In the case of Cn1c(=O)c2c(ncn2C)n(C)c1=O [Caffeine, caffeine], the AUC (CYP2D6; mouse) is reported as 97100 ng·h/mL, the half-life (CYP2D6; mouse, t 1/2 Distribution phase) is reported as 3.4 h and the “AUC in high-replacement chimeric mice compared with low-replacement chimeric mice” value [1] is reported as “significantly lower”. The AUC [1] was 65700 ng·h/mL, the “t 1/2 Distribution phase” value (in vivo; uPA(+/+)/SCID, iv) was 0.437^#3 hr and the half-life (in vivo; uPA(+/+)/SCID, iv, t 1/2 Distribution phase) was 0.809 h. The “t 1/2 Distribution phase” value (in vivo; uPA(+/+)/SCID, po) was 2.16^#3 hr, the half-life (in vivo; [2]) was 3.45 h and the AUC (in vivo; uPA(−/−)/SCID, iv) was 4070 ng·h/mL. It also gave a half-life (in vivo; [3]) of 0.609 h, a half-life (in vivo; [4]) of 0.505 h and an AUC (in vivo; uPA(−/−)/SCID, po) of 33200 ng·h/mL. It also gave a bioavailability (in vivo; uPA(−/−)/SCID, po) of 81.6%, a Cmax (in vivo; uPA(−/−)/SCID, po) of 8800 ng/mL and a half-life (in vivo; uPA(−/−)/SCID, po, t 1/2 Elimination phase) of 0.82 h.
For COc1ccc2c(c1)[C@]13CCCC[C@@H]1[C@H](C2)N(C)CC3 [Dextromethorphan, dextromethorphan], the AUC (CYP2D6; in vivo) was 358 ng·h/mL, the Cmax (CYP2D6; in vivo, 30 mg/kg/day) was 156 ng/mL and the half-life (CYP2D6; in vivo, t 1/2 Distribution phase, high-replacement chimeric mouse, donor BD51, inhibitor paroxetine, time window per footnote) was 1.44 h. The half-life (CYP2D6; in vivo, t 1/2 Elimination phase, high-replacement chimeric mouse, donor BD51, inhibitor paroxetine, time window per footnote) was 5.29 h, the “AUC in high-replacement chimeric mice compared with low-replacement chimeric mice” value (in vivo; donor hepatocytes IVT079) was “significantly lower” and the AUC (in vivo; uPA(+/+)/SCID, iv, intravenous administration, high-replacement chimeric mouse, donor IVT079) was 4030 ng·h/mL. The AUC (in vivo; uPA(+/+)/SCID, iv, intravenous administration, low-replacement chimeric mouse, donor IVT079) was 4600 ng·h/mL, the half-life (in vivo; uPA(+/+)/SCID, iv, t 1/2 Distribution phase, intravenous administration, high-replacement chimeric mouse, donor IVT079, time window per footnote) was 3.15 h and the half-life (in vivo; uPA(+/+)/SCID, iv, t 1/2 Distribution phase, intravenous administration, low-replacement chimeric mouse, donor IVT079, time window per footnote) was 0.414 h. For the same compound, the half-life (in vivo; uPA(+/+)/SCID, iv, t 1/2 Elimination phase, intravenous administration, high-replacement chimeric mouse, donor IVT079, 2-8 hr) was 1.23 h, the half-life (in vivo; uPA(+/+)/SCID, iv, t 1/2 Elimination phase, intravenous administration, low-replacement chimeric mouse, donor IVT079, 2-8 hr) was 1.5 h and the AUC (in vivo; uPA(+/+)/SCID, po, oral administration, high-replacement chimeric mouse, donor IVT079) was 1020 ng·h/mL. The AUC (in vivo; uPA(+/+)/SCID, po, oral administration, low-replacement chimeric mouse, donor IVT079) was 3650 ng·h/mL, the bioavailability (in vivo; uPA(+/+)/SCID, po, high-replacement chimeric mouse, donor IVT079) was 2.53% and the bioavailability (in vivo; uPA(+/+)/SCID, po, low-replacement chimeric mouse, donor IVT079) was 7.93%. It also gave a Cmax (in vivo; uPA(+/+)/SCID, po, oral administration, high-replacement chimeric mouse, donor IVT079, serum) of 276 ng/mL, a Cmax (in vivo; uPA(+/+)/SCID, po, oral administration, low-replacement chimeric mouse, donor IVT079, serum) of 836 ng/mL and a half-life (in vivo; uPA(+/+)/SCID, po, t 1/2 Distribution phase, oral administration, high-replacement chimeric mouse, donor IVT079, time window per footnote) of 1.15 h. For the same compound, the half-life (in vivo; uPA(+/+)/SCID, po, t 1/2 Distribution phase, oral administration, low-replacement chimeric mouse, donor IVT079, time window per footnote) was 2.88 h, the half-life (in vivo; uPA(+/+)/SCID, po, t 1/2 Elimination phase, oral administration, high-replacement chimeric mouse, donor IVT079, time window per footnote) was 10.4 h and the half-life (in vivo; uPA(+/+)/SCID, po, t 1/2 Elimination phase, oral administration, low-replacement chimeric mouse, donor IVT079, time window per footnote) was 9.98 h. For the same compound, the AUC (in vivo; uPA(−/−)/SCID, iv, intravenous administration, uPA(−/−)/SCID mouse) was 2610 ng·h/mL, the half-life (in vivo; uPA(−/−)/SCID, iv, t 1/2 Distribution phase, intravenous administration, uPA(−/−)/SCID mouse, time window per footnote) was 0.47 h and the AUC (in vivo; uPA(−/−)/SCID, po, oral administration, uPA(−/−)/SCID mouse) was 580 ng·h/mL. For the same compound, the bioavailability (in vivo; uPA(−/−)/SCID, po, uPA(−/−)/SCID mouse) was 2.22%, the Cmax (in vivo; uPA(−/−)/SCID, po, oral administration, uPA(−/−)/SCID mouse, serum, dose per drug in table) was 130 ng/mL and the half-life (in vivo; uPA(−/−)/SCID, po, t 1/2 Distribution phase, oral administration, uPA(−/−)/SCID mouse, time window per footnote) was 2.45 h.
For CC[C@H]1OC(=O)[C@H](C)[C@@H](O[C@H]2C[C@@](C)(OC)[C@@H](O)[C@H](C)O2)[C@H](C)[C@@H](O[C@@H]2O[C@H](C)C[C@H](N(C)C)[C@H]2O)[C@](C)(O)C[C@@H](C)C(=O)[C@H](C)[C@@H](O)[C@]1(C)O [Erythromycin, erythromycin], the AUC [1] was 21300 ng·h/mL, the “t 1/2 Distribution phase” value (in vivo; uPA(+/+)/SCID, po) was 2.22^#3 hr and the half-life (in vivo; [2]) was 4.38 h. For the same compound, the AUC (in vivo; uPA(−/−)/SCID, iv) was 13800 ng·h/mL, the half-life (in vivo; [3]) was 0.35 h and the half-life (in vivo; [4]) was 1.1 h. The AUC (in vivo; uPA(−/−)/SCID, po) was 4080 ng·h/mL, the bioavailability (in vivo; uPA(−/−)/SCID, po) was 2.95% and the Cmax (in vivo; uPA(−/−)/SCID, po) was 1000 ng/mL.
